This is an account of results in patent US20080269170A1, “Novel 2,4-Dianilinopyrimidine Derivatives, the Preparation Thereof, Their Use as Medicaments, Pharmaceutical Compositions and, in Particular, as IKK Inhibitors” (sanofi-aventis, priority 2005, published 2008).

`CSCCNC1CCC(N(C)S(=O)(=O)c2ccc(Nc3nccc(Nc4ccc(F)cc4)n3)cc2)CC1` (stereo not drawn) [Example 144, 4-({4-[(4-Fluorophenyl)amino]pyrimidin-2-yl}amino)-N-methyl-N-[4-cis(2-methylsulfanylethyl-amino)cyclohexyl]benzenesulfonamide] came in with a melting point of 146 °C.

Turning to `CSCCNC1CCC(N(C)S(=O)(=O)c2ccc(Nc3nccc(Nc4ccc(F)cc4)n3)cc2)CC1` (stereo not drawn) [Example 145, 4-({4-[(4-Fluorophenyl)amino]pyrimidin-2-yl}amino)-N-methyl-N-[4-trans(2-methylsulfanylethyl-amino)cyclohexyl]benzenesulfonamide], the melting point was found to be 171 °C.

Regarding `CNC1CCC(N(CCN2CCCC2)S(=O)(=O)c2ccc(Nc3nccc(Nc4ccc(F)cc4)n3)cc2)CC1` (stereo not drawn) [Example 146, 4-({4-[(4-Fluorophenyl)amino]pyrimidin-2-yl}amino)-N-(4-cis(methylamino)cyclohexyl)-N-(2-pyrrolidin-1-ylethyl)benzenesulfonamide], the melting point stood at 189 °C.

Take `CNC1CCC(N(CCN2CCCC2)S(=O)(=O)c2ccc(Nc3nccc(Nc4ccc(F)cc4)n3)cc2)CC1` (stereo not drawn) [Example 147, 4-({4-[(4-Fluorophenyl)amino]pyrimidin-2-yl}amino)-N-(4-trans(methylamino)cyclohexyl)-N-(2-pyr-rolidin-1-ylethyl)benzenesulfonamide]: the melting point amounted to 128 °C.

In turn, `C#CCN(C1CCN(C)CC1)S(=O)(=O)c1ccc(Nc2nccc(Nc3ccc(F)cc3)n2)cc1` [Example 148, 4-({4-[(4-Fluorophenyl)amino]pyrimidin-2-yl}amino)-N-propargyl-N-(1-methylpiperidin-4-yl)-benzenesulfonamide] came in with a melting point of 187 °C.

`CCN(C1CCN(C)CC1)S(=O)(=O)c1ccc(Nc2nccc(Nc3ccc(F)cc3)n2)cc1` [Example 149, 4-({4-[(4-Fluorophenyl)amino]pyrimidin-2-yl}amino)-N-ethyl-N-(1-methylpiperidin-4-yl)benzene-sulfonamide] registered a melting point of 154 °C.

In turn, `CN(C1CCN(C2CC2)CC1)S(=O)(=O)c1ccc(Nc2nccc(Nc3ccc(F)cc3)n2)cc1` [Example 150, N-(1-Cyclopropylpiperidin-4-yl)-4-({4-[(4-fluorophenyl)amino]pyrimidin-2-yl}amino)-N-methyl-benzenesulfonamide] returned a melting point of 125 to 128 °C.

In turn, `CN1CCC(N(CC[C@H]2CCCN2)S(=O)(=O)c2ccc(Nc3nccc(Nc4ccc(F)cc4)n3)cc2)CC1` [Example 153, 4-({4-[(4-Fluorophenyl)amino]pyrimidin-2-yl}amino)-N-(1-methylpiperidin-4-yl)-N-{2-[(2R)-pyrrol-idin-2-yl]ethyl}benzenesulfonamide] came in with a melting point of 85 °C.

In the case of `COc1cc(Nc2ccnc(Nc3ccc(S(=O)(=O)N(CCN4CCCC4)C4CCN(C5CC5)CC4)cc3)n2)ccc1F` [Example 156], the melting point was determined as 139 °C.

The compound `CN1CCC(N(Cc2cccn2C)S(=O)(=O)c2ccc(Nc3nccc(Nc4ccc(F)cc4)n3)cc2)CC1` [Example 161, 4-({4-[(4-Fluorophenyl)amino]pyrimidin-2-yl}amino)-N-(1-methylpiperidin-4-yl)-N-[(1-methyl-1H-pyrrol-2-yl)methyl]benzenesulfonamide] had a melting point of 129 °C.

`CN1CCC(N(C)S(=O)(=O)c2ccc(Nc3nccc(Nc4cc(F)c(F)c(F)c4)n3)cc2)CC1` [Example 162, 4-[4-(3,4,5-Trifluorophenylamino)pyrimidin-2-ylamino]-N-methyl-N-(1-methylpiperidin-4-yl)benzenesulfonamide] displayed a melting point of 226.9 °C.

`CN(C1CCN(CCS(C)(=O)=O)CC1)S(=O)(=O)c1ccc(Nc2nccc(Nc3ccc(F)c(F)c3)n2)cc1` [Example 163, 4-({4-[(3,4-Difluorophenyl)amino]pyrimidin-2-yl}amino)-N-methyl-N-{1-[2-(methyl-sulfonyl)ethyl]piperidin-4-yl}benzenesulfonamide] returned a melting point of 204 °C.

Turning to `CN(C1CCN(Cc2cccn2C)CC1)S(=O)(=O)c1ccc(Nc2nccc(Nc3ccc(F)c(F)c3)n2)cc1` [Example 164, 4-({4-[(3,4-Difluorophenyl)amino]pyrimidin-2-yl}amino)-N-methyl-N-{1-[(1-methyl-1H-pyrrol-2-yl)methyl]piperidin-4-yl)benzenesulfonamide], the melting point was in the range of 149 to 152 °C.

`CN(C1CCN(Cc2csnn2)CC1)S(=O)(=O)c1ccc(Nc2nccc(Nc3ccc(F)c(F)c3)n2)cc1` [Example 165, 4-({4-[(3,4-Difluorophenyl)amino]pyrimidin-2-yl}amino)-N-methyl-N-(1-{[1-(1,2,3)thiadiazol-4-yl]methyl}piperidin-4-yl)benzenesulfonamide] returned a melting point of 172 to 173 °C.

Compound `Cc1cc(CN2CCC(N(C)S(=O)(=O)c3ccc(Nc4nccc(Nc5ccc(F)c(F)c5)n4)cc3)CC2)no1` [Example 166, 4-({4-[(3,4-Difluorophenyl)amino]pyrimidin-2-yl}amino)-N-methyl-N-{1-[(5-methylisoxazol-3-yl)methyl]piperidin-4-yl}benzenesulfonamide] displayed a melting point of 204 to 206 °C.

`CN(C1CCN(CC(C)(C)O)CC1)S(=O)(=O)c1ccc(Nc2nccc(Nc3ccc(F)c(F)c3)n2)cc1` [Example 167, 4-[4-(3,4-Difluorophenylamino)pyrimidin-2-ylamino]-N-[1-(2-hydroxy-2-methylpropyl)piperidin-4-yl]-N-methylbenzenesulfonamide]: the melting point was 234 to 235 °C.

Compound `Cc1cc(Nc2ccnc(Nc3ccc(S(=O)(=O)N(Cc4ccco4)C4CCC(=O)CC4)cc3)n2)ccc1F` [Example 168] came in with a melting point of 184 °C.

The compound `Cc1cc(Nc2ccnc(Nc3ccc(S(=O)(=O)N(CC4CCCO4)C4CCC(=O)CC4)cc3)n2)ccc1F` (stereo not drawn) [Example 169] returned a melting point of 189 °C.
